Data set [1] has as its system VCaP cells. The data set is described as follows: Cell proliferation, trypan blue exclusion, VCaP. Type of data set: cell-based, human. To be noted: 36 hrs, viable cells by trypan blue exclusion, read-out: IC50, inhibition of cell growth in VCaP cells. On the procedure: (§1) The number of viable cells was counted by trypan blue exclusion assay.
(§2) Three distinct human prostate cancer derived cell lines, LNCaP, LAPC4 and VCaP were either DMSO treated or treated with 1, 2.5, 5, 7.5 and 10 μM of inhibitors, AIM-100, (R)-9b and (S)-9b for 36 hrs and the number of viable cells were counted by trypan blue exclusion assay.
(§3) The ability of the ACK1 inhibitors to suppress proliferation of prostate cancer cell lines were also assessed. AIM-100, an ACK1 inhibitor, originally screened by Amgen was used as a control. […] Overall, it appears that ACK1 is needed for androgen-independent growth of prostate cancer cells.

For data set [2], the system named is prostate xenograft tumor. As to conditions: literature; cited from earlier work.
The subject of data set [3] is AR. The data set is described as follows: AR protein levels in androgen-deprived prostate cancer cells, immunoblotting. As to conditions: immunoblotting (FIG. 2). Type of data set: cell-based, human. How it is done: Transcriptional regulation of the AR gene itself is a paradigm that merits thorough investigation. […] Whether AR utilizes ACK1 to facilitate its transcriptional co-activator function is not known. […] Cells were also treated with ACK1-specific small molecule inhibitors, DZ1-067 or AIM-100.
(A western blot detects proteins with antibodies after separation by electrophoresis.)

Data set [4] concerns the target T1, ACK1 (Homo sapiens, UniProt Q07912). The data set is described as follows: EGF-induced ACK1 autophosphorylation (Tyr284) in LAPC4 cells, immunoblotting. Format: cell-based. Also noted: endogenous in cells; host or cells: LAPC4. To be noted: pretreated with compound, 5 μM (FIG. 8(a)). How it is done: Inhibition of: LNCaP (FIG. 8(b)); LAPC4 (FIG. 8(c)), and VCaP (FIG. 8(d)) cell growth by AIM-100, (R)-9b, and (S)-9b. Inhibition of ACK1 autophosphorylation in LAPC4 cells treated 5 μM with (R)-9b and (S)-9b (FIG. 8(a)).
ACK1 is a tyrosine kinase that auto-phosphorylates at Tyr284, which is indicative of its kinase activation. To determine inhibitory potential of the compounds from library 9, prostate cancer derived cell line LAPC4 was treated with either EGF ligand alone or added to cells pretreated with the compounds, and equal amounts of cell lysates were subjected to immunoblotting. EGF (epidermal growth factor) ligand causes rapid activation of EGFR (epidermal growth factor receptor), which in turn lead to activation of the ACK1 kinase (FIG. 8(a), lane 2, top panel). […] Actin was used as control, which indicates equal loading of cell lysates (FIG. 8(a), lower panel).

Data set [5] relates to LNCaP cells. The data set is described as follows: Cell proliferation, trypan blue exclusion, LNCaP. Format: cell-based, human. To be noted: 36 hrs, viable cells by trypan blue exclusion, read-out: IC50, inhibition of cell growth in LNCaP cells. How it is done: as §1, §2, §3
Data set [6] deals with AR. The data set is described as follows: AR mRNA by real time PCR in androgen-deprived prostate cancer cells. To be noted: overnight treatment (FIG. 3a, b). Type of data set: cell-based, human. The source says: Total RNA was isolated followed by qPCR with AR primers. VCaP, *p=0.022; LNCaP, *p=0.042, **p=0.047. […] Total RNA was isolated followed by qPCR with PSA primers.
On the technique in general: Real-time PCR tracks product formation cycle by cycle.

For data set [7], the system named is PSA. The data set can be described thus: PSA mRNA by real time PCR in androgen-deprived prostate cancer cells. Type of data set: cell-based, human. To be noted: overnight treatment (FIG. 3c, d). An excerpt:
Total RNA was isolated followed by qPCR with AR primers. […] Total RNA was isolated followed by qPCR with PSA primers.

The conditions of data set [8]: attributed to oxidation of dithiolane ring and NMe2; literature; cited from earlier work.
The subject of data set [9] is cell line which is dependent upon ACK1. To be noted: literature; read-out: IC50, growth of a cell line dependent upon ACK1; cited from earlier work.
In data set [10] the target is T1, ACK1. As to conditions: literature; read-out: IC50, inhibition of ACK1 autophosphorylation in intact cells; cited from earlier work.
Data set [11] has as its system pY88-H4. The data set can be described thus: Endogenous H4 Y88-phosphorylation in LNCaP cells. Format: cell-based, human. As to conditions: 16 hrs (FIG. 5b). How it is done:
(§4) In FIG. 5(a), equimolar amounts of purified ACK1 and H4 proteins were incubated in the presence of DZ1-067 (100 nM) and reaction subjected to immunoblotting with pY88-H4 antibodies. […] The nuclear lysates were immunoprecipitated with pY88-H4 antibodies followed by immunoblotting with H4. Lower panel is input lysate.

Data set [12] deals with c-Src (Homo sapiens, UniProt P12931). The data set can be described thus: Kinase IC50 profiling, c-Src. Type of data set: biochemical. As to conditions: Table 3; 10-dose; 10 μM ATP; read-out: Compound IC50* (M): c-Src. How it is done: (§5) 8 compounds were tested against […], ACK1, Src and ALK in various combinations. […] Reactions were carried out at 10 μM ATP.
The target of data set [13] is T1, ACK1. The data set is described as follows: ACK1 ELISA: phosphorylation of AKT-derived peptide. Format: biochemical. As to conditions: 10 μM, Table 1, replicate values listed; for inhibition at 10 µM: read-out: % Inhibition at 10 μM (ELISA). On the technique in general: ELISA stands for enzyme-linked immunosorbent assay.
For data set [14], the target named is ALK (Homo sapiens, UniProt Q9UM73). The data set is described as follows: Kinase IC50 profiling, ALK. As to conditions: Table 4; 10-dose; 10 μM ATP; read-out: Compound IC50 (M), ALK. Type of data set: biochemical. How it is done: as §5
Data set [15] deals with AR and H3K4me3 at intron 2 of AR gene. The data set can be described thus: ChIP-qPCR of AR and H3K4me3 at intron 2 of AR gene. Type of data set: cell-based, human. As to conditions: absence of androgen (FIG. 7). On the procedure:
LNCaP cells treated with DZ1-067 and ChIP was performed using AR, H3K4me3, or IgG antibodies followed by qPCR using primers corresponding to intron 2, or control region. *p<0.05, **p<0.05, ***p<0.05, ****p<0.05.
To determine the functional and physiological relevance of pY88-H4/WDR5 interaction, and given the interaction of AR with MLL associated complex (Grasso C S, et al. The mutational landscape of lethal castration-resistant prostate cancer. Nature. 2012; 487(7406):239-43). ChIP experiments were performed to determine AR and H3K4me3 levels at the intron 2.

Data set [16] concerns the target T1, ACK1. The data set can be described thus: In vitro kinase assay, purified ACK1 and histone H4, pY88-H4 immunoblotting. Type of data set: biochemical. Also noted: made in house; host or cells: insect cells. To be noted: DZ1-067 100 nM (FIG. 5a). On the procedure: as §4
To assess direct binding of ACK1 to H4, in vitro kinase assay was performed using purified ACK1 and H4 (New England Biolabs). Human ACK1 was expressed in insect cells and purified to homogeneity. Immunoblotting with pY88-H4 and pTyr antibodies confirmed that indeed H4 is directly Tyr-phosphorylated by ACK1 (FIG. 5a).

Data set [17] has as its system pY88-H4 marks in AR gene. The data set can be described thus: ChIP-qPCR of pY88-H4 marks at the AR gene. To be noted: cells grown in absence of androgen (FIG. 6). Type of data set: cell-based, human. On the procedure: In FIG. 6(a), the human AR gene and two pY88-H4 binding sites are shown. […] VCaP: *p<0.05, **p<0.05; LNCaP: *p<0.05, **p<0.05
To determine whether ACK1 modifies chromatin at AR gene locus, LNCaP and LAPC4 cells grown in the absence of androgen and were treated with DZ1-067. Chromatin immunoprecipitation (ChIP) was performed using pY88-H4 antibodies, followed by real time PCR with primers corresponding to the AR promoter, intron 2 and 3′UTR (FIG. 6a). […] These marks were also deposited at 3′UTR of the AR gene but not at the promoter region (FIG. 6b, c).

The target of data set [18] is T1, ACK1. The data set can be described thus: 32P Hotspot assay (Reaction Biology), ACK1 IC50. Format: biochemical. On the procedure: as §5
The conditions of data set [19]: metastatic CRPC; literature; cited from earlier work.
Where [20] appears, read: Table 1, unit inferred, (RB) = Reaction Biology, replicates listed, read-out: IC50.
[21] abbreviates: Table 4, 10-dose, 10 μM ATP, read-out: Compound IC50 (M), ACK1.

The structures appear in SMILES notation. Values joined by “and” are separate entries in the source; they are usually repeats but may differ in a detail not shown here. Equal values may be shown once. Read-outs that look alike come from different tables or passages of the source.

Usually IC50 stands for the concentration that gives 50% inhibition. For orientation: % Inhibition means how much of the control response was suppressed. A lower % Inhibition goes with a response near the control. The term inhibition denotes the percentage by which the read-out fell short of the control.

T1 sequence (Q07912 whole entry): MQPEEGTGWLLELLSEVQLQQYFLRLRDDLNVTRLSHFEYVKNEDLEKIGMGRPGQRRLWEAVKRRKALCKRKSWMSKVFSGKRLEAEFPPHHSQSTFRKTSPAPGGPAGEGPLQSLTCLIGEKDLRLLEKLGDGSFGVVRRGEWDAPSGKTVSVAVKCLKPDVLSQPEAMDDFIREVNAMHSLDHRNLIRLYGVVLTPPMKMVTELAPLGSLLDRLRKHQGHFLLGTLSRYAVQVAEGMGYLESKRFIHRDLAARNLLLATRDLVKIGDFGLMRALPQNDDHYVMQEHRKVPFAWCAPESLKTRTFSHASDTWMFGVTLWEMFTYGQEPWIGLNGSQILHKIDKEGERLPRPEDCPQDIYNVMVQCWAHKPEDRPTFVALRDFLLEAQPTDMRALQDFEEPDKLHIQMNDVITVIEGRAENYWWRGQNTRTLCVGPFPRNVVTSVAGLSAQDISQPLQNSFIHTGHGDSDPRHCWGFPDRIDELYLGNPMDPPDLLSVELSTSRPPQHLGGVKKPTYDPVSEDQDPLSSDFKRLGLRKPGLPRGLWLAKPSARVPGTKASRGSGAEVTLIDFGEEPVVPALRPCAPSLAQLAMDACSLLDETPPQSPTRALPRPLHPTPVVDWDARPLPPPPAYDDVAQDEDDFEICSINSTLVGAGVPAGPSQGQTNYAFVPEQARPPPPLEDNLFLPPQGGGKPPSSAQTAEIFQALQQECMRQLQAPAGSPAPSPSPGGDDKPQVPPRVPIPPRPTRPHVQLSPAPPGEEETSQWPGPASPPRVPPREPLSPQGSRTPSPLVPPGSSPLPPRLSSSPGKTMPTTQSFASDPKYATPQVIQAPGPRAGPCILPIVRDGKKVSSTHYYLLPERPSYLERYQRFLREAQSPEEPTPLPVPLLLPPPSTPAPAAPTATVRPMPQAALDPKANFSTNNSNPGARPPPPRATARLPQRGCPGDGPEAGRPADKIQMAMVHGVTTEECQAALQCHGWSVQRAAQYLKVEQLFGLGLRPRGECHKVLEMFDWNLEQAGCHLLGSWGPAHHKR
Chain of ALK (Q9UM73 19-1620): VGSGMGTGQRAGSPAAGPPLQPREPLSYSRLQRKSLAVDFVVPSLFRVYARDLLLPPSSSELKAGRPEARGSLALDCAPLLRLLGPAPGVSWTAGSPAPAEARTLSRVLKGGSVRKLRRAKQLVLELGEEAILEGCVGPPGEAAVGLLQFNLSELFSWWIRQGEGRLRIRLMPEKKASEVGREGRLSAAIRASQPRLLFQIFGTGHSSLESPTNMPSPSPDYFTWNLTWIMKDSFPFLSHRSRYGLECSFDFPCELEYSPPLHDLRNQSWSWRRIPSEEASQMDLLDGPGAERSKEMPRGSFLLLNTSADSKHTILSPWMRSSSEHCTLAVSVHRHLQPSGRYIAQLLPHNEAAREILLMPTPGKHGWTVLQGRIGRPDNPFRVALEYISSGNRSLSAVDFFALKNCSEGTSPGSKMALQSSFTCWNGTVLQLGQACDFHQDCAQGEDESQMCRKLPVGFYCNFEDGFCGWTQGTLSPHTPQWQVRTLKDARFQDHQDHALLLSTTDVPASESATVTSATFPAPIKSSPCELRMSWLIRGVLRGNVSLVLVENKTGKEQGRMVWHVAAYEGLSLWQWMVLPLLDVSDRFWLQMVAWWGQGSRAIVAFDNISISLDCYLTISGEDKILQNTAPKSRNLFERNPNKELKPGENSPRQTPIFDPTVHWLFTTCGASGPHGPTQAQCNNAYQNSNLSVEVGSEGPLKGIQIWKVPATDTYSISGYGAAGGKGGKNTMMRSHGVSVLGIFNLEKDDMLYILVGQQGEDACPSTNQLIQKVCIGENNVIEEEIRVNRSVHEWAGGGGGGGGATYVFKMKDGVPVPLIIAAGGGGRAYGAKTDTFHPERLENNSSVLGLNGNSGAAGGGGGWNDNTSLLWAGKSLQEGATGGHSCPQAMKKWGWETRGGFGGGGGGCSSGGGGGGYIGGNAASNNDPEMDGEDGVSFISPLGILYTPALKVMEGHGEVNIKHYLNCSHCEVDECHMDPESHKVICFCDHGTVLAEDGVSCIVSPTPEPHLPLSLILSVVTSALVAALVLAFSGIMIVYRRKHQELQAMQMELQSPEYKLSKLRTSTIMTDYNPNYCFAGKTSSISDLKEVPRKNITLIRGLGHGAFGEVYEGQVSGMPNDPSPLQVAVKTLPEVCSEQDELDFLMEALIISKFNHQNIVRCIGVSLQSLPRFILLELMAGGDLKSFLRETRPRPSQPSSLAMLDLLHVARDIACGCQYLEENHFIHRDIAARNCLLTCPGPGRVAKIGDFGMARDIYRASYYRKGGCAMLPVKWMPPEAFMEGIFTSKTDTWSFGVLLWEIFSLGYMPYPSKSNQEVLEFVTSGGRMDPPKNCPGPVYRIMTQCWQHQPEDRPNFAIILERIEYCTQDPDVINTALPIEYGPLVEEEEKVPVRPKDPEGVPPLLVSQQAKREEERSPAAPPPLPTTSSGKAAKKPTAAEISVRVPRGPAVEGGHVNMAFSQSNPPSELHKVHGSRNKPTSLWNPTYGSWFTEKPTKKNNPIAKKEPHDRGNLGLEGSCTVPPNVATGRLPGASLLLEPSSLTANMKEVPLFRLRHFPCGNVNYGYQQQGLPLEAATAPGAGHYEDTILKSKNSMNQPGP
Chain of c-Src (P12931 whole entry): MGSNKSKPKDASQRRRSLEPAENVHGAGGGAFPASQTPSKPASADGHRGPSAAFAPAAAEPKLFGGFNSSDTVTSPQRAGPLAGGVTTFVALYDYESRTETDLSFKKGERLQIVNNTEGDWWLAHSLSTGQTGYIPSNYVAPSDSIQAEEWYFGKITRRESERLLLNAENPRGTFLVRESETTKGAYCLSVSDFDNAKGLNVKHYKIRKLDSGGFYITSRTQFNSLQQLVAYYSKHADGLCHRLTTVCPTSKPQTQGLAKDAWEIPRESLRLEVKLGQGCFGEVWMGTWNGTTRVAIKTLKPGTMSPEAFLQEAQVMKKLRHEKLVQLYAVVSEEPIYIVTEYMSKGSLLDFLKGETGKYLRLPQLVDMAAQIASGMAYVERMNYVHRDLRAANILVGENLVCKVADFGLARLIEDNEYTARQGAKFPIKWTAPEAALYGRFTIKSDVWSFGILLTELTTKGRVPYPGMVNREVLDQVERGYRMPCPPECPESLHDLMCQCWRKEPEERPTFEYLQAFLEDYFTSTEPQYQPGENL

For the compound `c1ccc(-c2oc3ncnc(NC[C@@H]4CCCO4)c3c2-c2ccccc2)cc1` [AIM-100], the concentration for half-maximal inhibition (IC50) in data set [1] was 4000 nM; in data set [5], 7000 nM. For the same compound, the “castration and radioresistant prostate xenograft tumor growth” value in data set [2] is given as “inhibits”. In addition, the AR protein levels result in [3] is recorded as “concomitant decrease in AR protein levels”. Also, the “ACK1 activation (autophosphorylation) in EGF-treated LAPC4 cells” value in data set [4] was “significant reduction in ACK1 activation”.
Turning to `CC(O)(CS(=O)(=O)c1ccc(F)cc1)C(=O)Nc1ccc(C#N)c(C(F)(F)F)c1` (centres unmarked) [Casodex], the “AR mRNA levels” value in [6] is given as “no significant change”. Also, in data set [7], the “PSA mRNA levels” value was “significantly suppressed PSA mRNA levels”.
For `CN(C)CCOc1ccc(-c2oc3ncnc(NCC4SCCS4)c3c2-c2ccccc2)cc1` [Compound 1c], the pharmacokinetic properties entry in [8] is recorded as “poor pharmacokinetic properties”. Besides, in data set [9], the IC50 is 5 nM.
In the case of `COC(C)(C)CCn1nc(Nc2c(C)cccc2C)c2cnc(Nc3ccccc3)nc21` [Compound 2], the concentration for half-maximal inhibition (IC50) in data set [10] is 20 nM.
On to `C[C@]12CCC(=O)C[C@@H]1CC[C@@H]1[C@@H]2CC[C@]2(C)[C@@H](O)CC[C@@H]12` [DHT], for which the AR protein levels result in data set [3] was “increased AR levels”. Further, in data set [6], the “AR mRNA levels” value is “no significant change”. The “endogenous pY88-phosphorylation of H4 in LNCaP cells” value (“endogenous pY88-phosphorylation” below) in data set [11] is recorded as “unaffected”.
Turning to `CN1CCN(c2ccc(Nc3ncc(Cl)c(NC[C@H]4CCCO4)n3)cc2)CC1` [DZ1-067, (R)-5-chloro-N2-(4-(4-methylpiperazin-1-yl)phenyl)-N4-((tetrahydrofuran-2-yl)methyl)pyrimidine-2,4-diamine], the IC50 in [1] (Homo sapiens, VCaP) was 2000 nM; in data set [12], 4.38e-07 M; in data set [5] (Homo sapiens, LNCaP), 1800 nM; in data set [14] it was 1.43e-07 M; in [18] (setting [20]), 5.6e-08 M and 5.78e-08 M and 6.05e-08 M; in data set [18] (Table 3, 10-dose, 3-fold dilution from 10 μM, 10 μM ATP, read-out: Compound IC50* (M): ACK1), 6.05e-08 M. Moreover, the IC50 in data set [18] (setting [21]) is 5.78e-08 M. Moreover, in data set [3], the AR protein levels entry is “significant downregulation the AR protein”. In addition, in [6], the “AR mRNA levels” value was “significantly suppressed”. Also, the “% Inhibition at 10 μM (ELISA)” value in [13] is 91%. For the same compound, the inhibition at 10 µM in data set [13] came out at 93%. In addition, the “endogenous pY88-phosphorylation” value in data set [11] is listed as “eliminated”. Besides, the “AR and H3K4me3 methyl marks at intron 2 (ChIP)” value in [15] is on record as “abolished”. The “H4 Tyr-phosphorylation by purified ACK1” value in data set [16] is recorded as “abrogated”. The “pY88-H4 epigenetic marks in AR gene (ChIP)” value in data set [17] is “erased”.
Take `CN1CCN(c2ccc(Nc3ncc(Cl)c(NC[C@@H]4CCCO4)n3)cc2)CC1` [DZ1-077, (S)-5-chloro-N2-(4-(4-methylpiperazin-1-yl)phenyl)-N4-((tetrahydrofuran-2-yl)methyl)pyrimidine-2,4-diamine]: the concentration for half-maximal inhibition (IC50) in data set [1] (Homo sapiens, VCaP) was 4000 nM; in data set [5] (Homo sapiens, LNCaP), 1800 nM; in data set [14] it was 2.96e-07 M; in [18] (setting [20]), 8.05e-08 M and 8.33e-08 M; in data set [18] (setting [21]), 8.33e-08 M. In addition, in data set [13], the “% Inhibition at 10 μM (ELISA)” value is 94%. Besides, the inhibition at 10 µM in [13] was 93%.
With `CNC(=O)c1ccc(N2C(=S)N(c3ccc(C#N)c(C(F)(F)F)c3)C(=O)C2(C)C)cc1F` [Enzalutamide], in [19], the “CRPC patients in whom effective” value is reported as 12 out of 30 and the overall survival advantage was 4-6 months. Further, the “AR mRNA levels” value in data set [6] is “no significant change”. Besides, the “endogenous pY88-phosphorylation” value in data set [11] is “unaffected”. Also, the “PSA mRNA levels” value in data set [7] is “significantly suppressed PSA mRNA levels”.
For the compound `COc1cc(N2CCC(N3CCN(C)CC3)CC2)ccc1Nc1ncc(Cl)c(Nc2ccccc2S(=O)(=O)C(C)C)n1` [TAE684], the “ACK1 activation (autophosphorylation) in EGF-treated LAPC4 cells” value in data set [4] is reported as “significant reduction in ACK1 activation”.

The values above are taken from US9850216B2 (H. LEE MOFFITT CANCER CENTER AND RESEARCH INSTITUTE, INC., priority 2013, dated 2017).
